Measured values published in US20160166572A1, “BENEFICIAL EFFECTS OF Lp-PLA2 INHIBITORS IN TREATMENT OF DIABETIC RETINOPATHY AND AGE-RELATED MACULAR DEGENERATION” (Rowan University, priority 2014, published 2016).

What was measured:
Type in all cases: in vivo, pig
occludin = experiment: Occludin gene expression in cerebral cortex (RT-PCR, beta-actin reference), DMHC pigs; conditions: Darapladib 10 mg/kg/d orally, 24 weeks, rank among treatment groups, FIG. 8B
Procedure: (§1) Briefly, after induction of diabetes by a single injection of Streptozotocin, animals were fed a high cholesterol diet. After a month of DMHC induction and acclimation, animals were randomly segregated to untreated DMHC and Darapladib-treated DMHC groups. Darapladib-treated pigs received 10 mg/kg/d of Darapladib orally. Three of the pigs were spared from DMHC induction and served as age-matched, non-DMHC normal controls. Twenty four weeks after acclimation, animals were euthanized and their brains and eyes were immediately removed. Brains were divided anteroposteriorly into anterior, middle and posterior regions. […]
(§2) Relative quantification of claudin5 and occludin gene expression was carried out using the reporter dye SYBR green and Applied Biosystems 7500 real time polymerase chain reaction (RT-PCR) system. […] Relative quantification of the claudin5 and occludin gene expression was conducted using beta actin (β-actin), a house keeping gene, as a standard. The amplification profiles of all samples were analyzed using Applied Biosystems software. […]
(§3) Changes in claudin 5 and occludin gene expression in response to DMHC and Darapladib treatment were assessed in the middle brain region only of the pig cerebral cortex by real-time polymerase chain reaction (RT-PCR) using beta-actin as a reference (FIG. 8).

claudin5 = experiment: Claudin5 gene expression in cerebral cortex (RT-PCR, beta-actin reference), DMHC pigs; conditions: Darapladib 10 mg/kg/d orally, 24 weeks, rank among treatment groups, FIG. 8A
Procedure: as §1, §2, §3

porcine retina = experiment: Cell number in retinal GCL and INL by counting DAPI-positive nuclei, DMHC pigs; conditions: Darapladib 10 mg/kg/d orally, 24 weeks, FIG. 3D-E
Procedure: Briefly, after induction of diabetes by a single injection of Streptozotocin, animals were fed a high cholesterol diet. After a month of DMHC induction and acclimation, animals were randomly segregated to untreated DMHC and Darapladib-treated DMHC groups. Darapladib-treated pigs received 10 mg/kg/d of Darapladib orally. Three of the pigs were spared from DMHC induction and served as age-matched, non-DMHC normal controls. Twenty four weeks after acclimation, animals were euthanized and their brains and eyes were immediately removed. Brains were divided anteroposteriorly into anterior, middle and posterior regions. For each of these brain regions, 2-3 tissue blocks were generated for routine tissue fixation (10% formalin) or freezing and histological processing. The anterior cortical region comprised of anterior ⅔ of frontal lobe and anterior ⅓ of temporal lobe. […] Cells positive for GFAP were counted throughout the whole thickness of the retina, and then quantified using ImagePro7.0 (Media Cybernetics, Silver Spring, Md.). Briefly, a 300×300 pixel square area was randomly made in each retinal section in three contiguous locations across the retina and the positive GFAP area was determined per total area using a fixed threshold. […] Cell number was determined by counting the DAPI-positive nuclei in a fixed area. […]

CCN(CC)CCN(Cc1ccc(-c2ccc(C(F)(F)F)cc2)cc1)C(=O)Cn1c(SCc2ccc(F)cc2)nc(=O)c2c1CCC2 [Darapladib]
occludin gene expression, middle brain region of cerebral cortex (occludin): highest claudin5 and occludin levels | claudin5 gene expression, middle brain region of cerebral cortex (claudin5): highest claudin5 and occludin levels | cell number (nuclei) in GCL (porcine retina): comparable to controls | cell number (nuclei) in INL (porcine retina): comparable to controls
